Consider 31 compounds from patent publication US8822503B2, “2-pyridone compounds” (Taisho Pharmaceutical Co., Ltd, priority 2009, dated 2014).

Molecules are shown by their SMILES.

For this assay, the target named is T1, human liver GK (Homo sapiens, UniProt P35557).
T1 construct: GST (glutathione S-transferase) (N); made in house; host or cells: E. coli
T1 sequence (P35557 1-466 isoform P35557-2): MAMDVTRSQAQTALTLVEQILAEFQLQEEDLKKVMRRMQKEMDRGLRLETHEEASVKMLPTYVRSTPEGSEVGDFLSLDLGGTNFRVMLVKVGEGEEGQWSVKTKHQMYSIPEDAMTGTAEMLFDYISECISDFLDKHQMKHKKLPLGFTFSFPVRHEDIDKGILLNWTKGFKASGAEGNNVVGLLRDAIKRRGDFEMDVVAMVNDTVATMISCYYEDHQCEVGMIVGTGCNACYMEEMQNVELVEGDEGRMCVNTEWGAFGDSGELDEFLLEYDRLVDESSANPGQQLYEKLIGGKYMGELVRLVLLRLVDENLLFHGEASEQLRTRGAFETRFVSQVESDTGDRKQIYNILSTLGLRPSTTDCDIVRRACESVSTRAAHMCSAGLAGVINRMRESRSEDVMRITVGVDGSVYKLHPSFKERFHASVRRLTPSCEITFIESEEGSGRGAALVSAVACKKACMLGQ
Nature of the assay: GK activation test. It counts as biochemical. The note with it: test compound concentration needed to activate 50% of maximum activation ability; 4 mM 14C-labeled glucose, 2 mM ATP, room temperature, 20 minutes. Summed up: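 GST-tagged human liver GK from E. coli (0.24 μg/well) with 4 mM 14C-glucose, 2 mM ATP in Hepes-KOH pH 7.1, KCl, MgCl2, DTT, 1% DMSO, 20 min room temperature. Labeled glucose 6-phosphate captured on anion resin, eluted and counted. EC50 = concentration giving half of maximal activation.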
As usually defined, the EC50 is the concentration giving half of the maximal effect. A lower EC50 goes with an effect from little substance. Compound `CCN(CC)CCCS(=O)(=O)c1ccc(C(CC2CCCC2)c2ccc(C)c(=O)[nH]2)cc1Cl` (stereo not shown) [Example 2-13, 6-[1-(3-Chloro-4-{[3-(diethylamino)propyl]sulfonyl}phenyl)-2-cyclopentylethyl]-3-methylpyridin-2(1H)-one] yielded an EC50 of 500 to 3000 nM.
Then `CCN(CC)CCCCOc1ccc(/C(=C\[C@H]2CCC(=O)C2)c2ccc(C3CC3)c(=O)[nH]2)cc1Cl` [Example 1-80, 6-{(E)-1-{3-Chloro-4-[4-(diethylamino)butoxy]phenyl}-2-[(1S)-3-oxocyclopentyl]ethenyl}-3-cyclopropylpyridin-2(1H)-one], with 10 to 500 nM; and `COc1ccc(/C(=C\[C@H]2CCC(=O)N2)c2ccc(C3CC3)c(=O)[nH]2)cc1Cl` [Example 4-260, 6-{(E)-1-(3-Chloro-4-methoxyphenyl)-2-[(2R)-5-oxopyrrolidin-2-yl]ethenyl}-3-cyclopropylpyridin-2(1H)-one], with 10 to 500 nM; and `Cc1ccc(/C(=C\[C@H]2CCC(=O)N2)c2ccc(C3CC3)c(=O)[nH]2)c(F)c1` [Example 4-102, 3-Cyclopropyl-6-{(E)-1-(2-fluoro-4-methylphenyl)-2-[(2R)-5-oxopyrrolidin-2-yl]ethenyl}pyridin-2(1H)-one], with 10 to 500 nM.
Then `Cc1ccc(/C(=C\[C@H]2CCC(=O)N2)c2ccc(Cl)c(=O)[nH]2)cc1Cl` [Example 4-24, 3-Chloro-6-{(E)-1-(3-chloro-4-methylphenyl)-2-[(2R)-5-oxopyrrolidin-2-yl]ethenyl}pyridin-2(1H)-one], with 500 to 3000 nM; and `Cc1ccc(/C(=C/C2CCCC2)c2ccc(SCCCO)c(Cl)c2)[nH]c1=O` [Example 1-22, 6-[(E)-1-{3-Chloro-4-[(3-hydroxypropyl)sulfanyl]phenyl}-2-cyclopentylethenyl]-3-methylpyridin-2(1H)-one], with 10 to 500 nM.
Take `Cc1ccc(/C(=C/CC2CCCC2)c2ccc(S(=O)(=O)C3CC3)cc2)[nH]c1=O` [Example 1-37, 6-{(1E)-3-Cyclopentyl-1-[4-(cyclopropylsulfonyl)phenyl]prop-1-en-1-yl}-3-methylpyridin-2(1H)-one]: the EC50 fell in the range of 10 to 500 nM.
Then `O=C1CC[C@H](/C=C(\c2ccc(S(=O)(=O)C3CC3)cc2)c2ccc(C(F)(F)F)c(=O)[nH]2)C1` [Example 1-63, 6-{(E)-1-[4-(Cyclopropylsulfonyl)phenyl]-2-[(1S)-3-oxocyclopentyl]ethenyl}-3-(trifluoromethyl)pyridin-2(1H)-one], with 500 to 3000 nM.
Then `O=c1[nH]c(/C(=C/C2CCCC2)c2ccc(S(=O)(=O)C3CC3)cc2)ccc1CO` [Example 1-30, 6-{(E)-2-Cyclopentyl-1-[4-(cyclopropylsulfonyl)phenyl]ethenyl}-3-(hydroxymethyl)pyridin-2(1H)-one], with 10 to 500 nM; and `CS(=O)(=O)c1cc(/C(=C\[C@H]2CCC(=O)N2)c2ccc(Cl)c(=O)[nH]2)ccc1C(F)F` [Example 4-157, 3-Chloro-6-{(E)-1-[4-(difluoromethyl)-3-(methylsulfonyl)phenyl]-2-[(2R)-5-oxopyrrolidin-2-yl]ethenyl}pyridin-2(1H)-one], with 3000 to 10000 nM; and `CCc1ccc(C(C[C@H]2CCC(=O)N2)c2ccc(Cl)c(=O)[nH]2)cc1Cl` (single isomer, unassigned) [Example 4-324], with 500 to 3000 nM.
Then `CC(C)COCCc1ccc(/C(=C\[C@H]2CCC(=O)N2)c2ccc(Cl)c(=O)[nH]2)cc1` [Example 4-28, 3-Chloro-6-{(E)-1-{4-[2-(2-methylpropoxy)ethyl]phenyl}-2-[(2R)-5-oxopyrrolidin-2-yl]ethenyl}pyridin-2(1H)-one], with 500 to 3000 nM; and `CC(C)(C)c1ccc(/C(=C\[C@H]2CCC(=O)N2)c2ccc(-c3cnoc3)c(=O)[nH]2)cc1` [Example 4-184, 6-{(E)-1-(4-tert-Butylphenyl)-2-[(2R)-5-oxopyrrolidin-2-yl]ethenyl}-3-(1,2-oxazol-4-yl)pyridin-2(1H)-one], with 10 to 500 nM; and `O=C1CC[C@H](/C=C(\c2ccc(Cl)c(Cl)c2)c2ccc(C3CC3)c(=O)[nH]2)N1` [Example 4-101, 3-Cyclopropyl-6-{(E)-1-(3,4-dichlorophenyl)-2-[(2R)-5-oxopyrrolidin-2-yl]ethenyl}pyridin-2(1H)-one], with 10 to 500 nM.
`CC(C)(C)c1ccc(/C(=C\COc2ccccc2)c2ccc(Cl)c(=O)[nH]2)cc1` [Example 6-10, 6-[(1E)-1-(4-tert-Butylphenyl)-3-phenoxyprop-1-en-1-yl]-3-chloropyridin-2(1H)-one] showed an EC50 of 500 to 3000 nM.
Then `O=C1CC[C@H](/C=C(\c2ccc(Cl)cc2)c2ccc(CCCCO)c(=O)[nH]2)N1` [Example 4-199, 6-{(E)-1-(4-Chlorophenyl)-2-[(2R)-5-oxopyrrolidin-2-yl]ethenyl}-3-(4-hydroxybutyl)pyridin-2(1H)-one], with 500 to 3000 nM; and `O=c1[nH]c(/C(=C/CCCO)c2ccc(SC3CC3)cc2)ccc1C(F)(F)F` [Example 1-98, 6-{(1E)-1-[4-(Cyclopropylsulfanyl)phenyl]-5-hydroxypent-1-en-1-yl}-3-(trifluoromethyl)pyridin-2(1H)-one], with 3000 to 10000 nM.
Then `O=C1CC[C@H](CC(c2ccc(C(F)F)c(F)c2)c2ccc(C3CC3)c(=O)[nH]2)N1` (single isomer, unassigned) [Example 4-233], with 500 to 3000 nM; and `O=C1CCC(CC(c2ccc(C(F)F)cc2)c2ccc(C3CC3)c(=O)[nH]2)N1` (single isomer, unassigned) [Example 4-341, 3-Cyclopropyl-6-[1-[4-(difluoromethyl)phenyl]-2-(5-oxopyrrolidin-2-yl)ethyl]pyridin-2(1H)-one], with 3000 to 10000 nM.
Then `O=C1CC[C@H](/C=C(\c2ccc(C(F)(F)F)c(F)c2)c2ccc(C3CC3)c(=O)[nH]2)N1` [Example 4-116, 3-Cyclopropyl-6-{(E)-1-[3-fluoro-4-(trifluoromethyl)phenyl]-2-[(2R)-5-oxopyrrolidin-2-yl]ethenyl}pyridin-2(1H)-one], with 10 to 500 nM; and `CN1CCN(S(=O)(=O)c2ccc(C(C[C@H]3CCC(=O)N3)c3ccc(Cl)c(=O)[nH]3)cc2)CC1` (stereo partly drawn) [Example 4-89, 3-Chloro-6-(1-{4-[(4-methylpiperazin-1-yl)sulfonyl]phenyl}-2-[(2R)-5-oxopyrrolidin-2-yl]ethyl)pyridin-2(1H)-one], with 3000 to 10000 nM; and `CC(C)(C)c1ccc(/C(=C\[C@H]2CCC(=O)N2)c2ccc(Cl)c(=O)[nH]2)c(O)c1` [Example 4-162, 6-{(E)-1-(4-tert-Butyl-2-hydroxyphenyl)-2-[(2R)-5-oxopyrrolidin-2-yl]ethenyl}-3-chloropyridin-2(1H)-one], with 10 to 500 nM.
For `O=C1CC[C@H](/C=C(\c2ccc(F)c(F)c2)c2ccc(C3CC3)c(=O)[nH]2)N1` [Example 4-112, 3-Cyclopropyl-6-{(E)-1-(3,4-difluorophenyl)-2-[(2R)-5-oxopyrrolidin-2-yl]ethenyl}pyridin-2(1H)-one], the EC50 fell in the range of 500 to 3000 nM.
Compound `Cc1ccc(/C(=C/C2CCCC2)c2ccc(S(=O)(=O)C3CC3)cc2)[nH]c1=O` [Example 1-11, 6-{(E)-2-Cyclopentyl-1-[4-(cyclopropylsulfonyl)phenyl]ethenyl}-3-methylpyridin-2(1H)-one] yielded an EC50 of 10 to 500 nM.
With `CSc1ccc(C(CC2CCCCC2)c2ccc(C)c(=O)[nH]2)cc1` (stereo not shown) [Example 2-16, 6-{2-Cyclohexyl-1-[4-(methylsulfanyl)phenyl]ethyl}-3-methylpyridin-2(1H)-one], the EC50 fell in the range of 500 to 3000 nM.
Then `O=C1CC[C@H](/C=C(\c2ccc(Cl)c(F)c2)c2ccc(C3CC3)c(=O)[nH]2)N1` [Example 4-111, 6-{(E)-1-(4-Chloro-3-fluorophenyl)-2-[(2R)-5-oxopyrrolidin-2-yl]ethenyl}-3-cyclopropylpyridin-2(1H)-one], with 10 to 500 nM; and `O=C1CC[C@H](/C=C(\c2ccc(S(=O)(=O)C3CC3)cc2)c2ccc(Cl)c(=O)[nH]2)N1` [Example 4-57, 3-Chloro-6-{(E)-1-[4-(cyclopropylsulfonyl)phenyl]-2-[(2R)-5-oxopyrrolidin-2-yl]ethenyl}pyridin-2(1H)-one], with 10 to 500 nM; and `CS(=O)(=O)c1ccc(/C(=C\C2CCCC2)c2ccc(Cl)c(=O)[nH]2)cc1` [Example 1-2, 3-Chloro-6-{(E)-2-Cyclopentyl-1-[4-(methylsulfonyl)phenyl]ethenyl}pyridin-2(1H)-one], with 500 to 3000 nM.
Then `CN(C)S(=O)(=O)Nc1ccc(/C(=C\[C@H]2CCC(=O)N2)c2ccc(C3CC3)c(=O)[nH]2)cc1` [Example 4-139, N′-(4-{(E)-1-(5-Cyclopropyl-6-oxo-1,6-dihydropyridin-2-yl)-2-[(2R)-5-oxopyrrolidin-2-yl]ethenyl}phenyl)-N,N-dimethylsulfuric acid diamide], with 10 to 500 nM.
Then `NC(=O)Nc1ccc(/C(=C\C2CCCC2)c2ccc(Cl)c(=O)[nH]2)cc1` [Example 1-106, 1-{4-[(E)-1-(5-Chloro-6-oxo-1,6-dihydropyridin-2-yl)-2-cyclopentylethenyl]phenyl}urea], with 500 to 3000 nM; and `O=C1CC[C@H](/C=C(\c2ccc(CO)cc2)c2ccc(Cl)c(=O)[nH]2)N1` [Example 4-277, 3-Chloro-6-{(E)-1-[4-(hydroxymethyl)phenyl]-2-[(2R)-5-oxopyrrolidin-2-yl]ethenyl}pyridin-2(1H)-one], with 3000 to 10000 nM.
